Drawing on BindingDB's records for doi:10.1016/j.chembiol.2010.06.007 (Stanford School of Medicine, 2010), this text covers IC50 for 17 compounds.

Structures are written as SMILES.

In the experiment the target is Dipeptidyl aminopeptidase 1 (Plasmodium falciparum). The experiment can be described thus: DPAP1 inhibtion was measured using DPAP1-specific fluorogenic assay. IC50 DPAP1 were determined after 30 min incubation of parasite lysates with 5 nM to 100 mM inhibitor. ki values were obtained by fitting the data to Equation 1.
Regarding `CCCCC(C(=O)COc1c(F)c(F)cc(F)c1F)n1cc([C@](C)(N)C2CCCCC2)nn1` (some centres not stated) [ML4046B], the IC50 was above 20000 nM.

In turn, `CCCCC(C(=O)COc1c(F)c(F)cc(F)c1F)n1cc(C(CCC)(CCC)NC)nn1` (configuration not stated) [ML5004] yielded an IC50 of 7700 nM.

`CCCCC(C(=O)COc1c(F)c(F)cc(F)c1F)n1cc(C2(C)CCCN2)nn1` (configuration not stated) [ML6076] registered an IC50 of 420 nM.

`CCCCC(C(=O)COc1c(F)c(F)cc(F)c1F)n1cc(C(C)N)nn1` (configuration not stated) [ML4057] yielded an IC50 of 700 nM.

`CCCCC(C(=O)COc1c(F)c(F)cc(F)c1F)n1cc(C(C)(N)CCC)nn1` (configuration not stated) [ML4123]: the IC50 was 410 nM. This IC50 is about 1.7-fold lower than that of the compound before.

The compound `CCCCC(C(=O)COc1c(F)c(F)cc(F)c1F)n1cc([C@@](C)(N)C2CCCCC2)nn1` (some centres not stated) [ML4046A] yielded an IC50 of 700 nM.

As to `CCCCC(C(=O)COC(=O)c1c(C)cccc1C)n1cc(C2(N)CCCCC2)nn1` (configuration not stated) [ML4091], the IC50 was 11000 nM.

Regarding `CCCCC(C(=O)COc1c(F)c(F)cc(F)c1F)n1cc(C(N)Cc2ccccc2)nn1` (configuration not stated) [ML4068], half-maximal inhibition (IC50) required 74000 nM.

For the compound `CCCCC(C(=O)COc1c(F)c(F)cc(F)c1F)n1cc(C2(N)CCNCC2)nn1` (configuration not stated) [ML4162], the IC50 is above 20000 nM.

In turn, `CCCCC(C(=O)COc1c(F)c(F)cc(F)c1F)n1cc(C(C)(C)N)nn1` (configuration not stated) [ML4066] returned an IC50 of 1100 nM. This counts as single-digit micromolar.

For `CCCCC(C(=O)COc1c(F)c(F)cc(F)c1F)n1cc(C2(N)CCN(C(N)=O)CC2)nn1` (configuration not stated) [ML4154], the IC50 is above 20000 nM.

On to `CCCCC(C(=O)COc1c(F)c(F)cc(F)c1F)n1cc(C2(N)CCCCC2)nn1` (configuration not stated) [HN3019], for which the IC50 came out at 560 nM. This counts as sub-micromolar.

`CCCCC(C(=O)COc1c(F)c(F)cc(F)c1F)n1cc(C(C)(N)Cc2ccccc2)nn1` (configuration not stated) [ML4053] yielded an IC50 above 100000 nM.

As to `CCCCC(C(=O)COc1c(F)c(F)cc(F)c1F)n1cc(C(N)(CC)CC)nn1` (configuration not stated) [ML4161], half-maximal inhibition (IC50) required 410 nM.

Compound `CCCCC(C#N)n1cc(C2(N)CCCCC2)nn1` (configuration not stated) [ML4101] had an IC50 above 100000 nM.

The compound `CCCCC(C(=O)COc1c(F)c(F)cc(F)c1F)n1cc(C2(N)CCN(C(C)=O)CC2)nn1` (configuration not stated) [ML4163] returned an IC50 above 20000 nM.

In turn, `CCCCC(C(=O)COc1c(F)c(F)cc(F)c1F)n1cc(C(N)(CCC)CCC)nn1` (configuration not stated) [ML4124] returned an IC50 of 700 nM.
